US9423396B2, “Bodipy structure fluorescence probes for diverse biological applications” (National University of Singapore, priority 2011, dated 2016)

What was measured:
[1] = Spectroscopic measurements (absorption, emission, quantum yield, extinction coefficient); assay type: physicochemical
Beta TC-6 cells = assay: High throughput cell-based screening on acinar, Alpha TC-1 and Beta TC-6 cells; parameters: species or system mouse; settings: 1 μM, 1 hr to 48 hours, 384-well plates
Method: To discover pancreatic islet selective probes, we expanded the other two types of BODIPY library generated from the original GY (Glucagon Yellow) structure. We started with high throughput cell-based screening using mouse acinar cells composed of exocrine tissue, mouse Alpha TC-1 cells and Beta TC-6 cells composed of endocrine pancreas islets. Those three different types of cells were prepared side by side in 384-well plates and incubated with 1 μM of BODIPY compounds for different incubation times ranging from 1 hr to 48 hours. The fluorescence images were acquired on an automated imaging microscope system ImageXpress Micro™. The fluorescence intensity of the stained cells was analyzed using MetaXpress® image processing software.

[2] = BDNCA library, difference emission minus absorption
[3] = BDNCA library, extinction coefficient; in M-1 cm-1 (unit assumed)
[4] = BDNCA library, fluorescence emission
[5] = absorption maximum, BDNCA library
[6] = difference of emission and absorption maxima
[7] = extinction coefficient, BDNCA library; in M-1 cm-1 (unit assumed)
[8] = fluorescence emission maximum, BDNCA library

Structure (SMILES)	Qunt. Yield ([1]; BDNCA library)	Abs ([1]; BDNCA library, absorption) [nm]	Flu-Abs [1, 2]	ε [1, 3]	Flu [1, 4]	staining of alpha cells and beta cells compared with acinar cells (Beta TC-6 cells)	Abs [1, 5] [nm]	Flu-Abs [1, 6]	ε [1, 7]	Flu [1, 8]	Qunt. Yield ([1]; quantum yield, BDNCA library)
CC1=CC(/C=C/c2cc(C)c(OCc3ccccc3)c(C)c2)=[N+]2C1=C(c1ccc(NC(=O)CCl)cc1)c1cccn1[B-]2(F)F [BDNCA-16]	0.13	562	23	55,469	585	stained either both alpha cells and beta cells or beta cells only as compared with acinar cells					
Cc1cc(/C=C/c2ccc(-c3ccccc3)cc2)n2c1C(c1ccc(NC(=O)CCl)cc1)=C1C=CC=[N+]1[B-]2(F)F [BDNCA-5]	0.09	566	23	39,542	589	stained either both alpha cells and beta cells or beta cells only as compared with acinar cells					
Cc1cc(/C=C/c2ccc3c(c2)OC(F)(F)O3)n2c1C(c1ccc(NC(=O)CCl)cc1)=C1C=CC=[N+]1[B-]2(F)F [BDNCA-332]							556	19	27,735	575	0.05
CC1=CC(/C=C/c2ccc3ccccc3c2)=[N+]2C1=C(c1ccc(NC(=O)CCl)cc1)c1cccn1[B-]2(F)F [BDNCA-137]	0.10	564	20	43,387	584						
CC1=CC(/C=C/c2ccc(-n3ccnc3)cc2)=[N+]2C1=C(c1ccc(NC(=O)CCl)cc1)c1cccn1[B-]2(F)F [BDNCA-8]	0.04	562	20	29,108	582						
CC1=CC(/C=C/c2ccc(C)c3ccccc23)=[N+]2C1=C(c1ccc(NC(=O)CCl)cc1)c1cccn1[B-]2(F)F [BDNCA-36]	0.08	572	38	30,755	610						
COc1c(Br)cc(Br)cc1/C=C/C1=[N+]2C(=C(c3ccc(NC(=O)CCl)cc3)c3cccn3[B-]2(F)F)C(C)=C1 [BDNCA-241]	0.09	558	20	48,879	578						
CC1=CC(/C=C/c2ccc(I)cc2)=[N+]2C1=C(c1ccc(NC(=O)CCl)cc1)c1cccn1[B-]2(F)F [BDNCA-237]	0.13	560	19	70,572	579						
CC1=CC(/C=C/c2ccc(-c3ccccn3)cc2)=[N+]2C1=C(c1ccc(NC(=O)CCl)cc1)c1cccn1[B-]2(F)F [BDNCA-88]	0.11	566	18	27,185	584						
Cc1cc(/C=C/c2ccccc2C(=O)O)n2c1C(c1ccc(NC(=O)CCl)cc1)=C1C=CC=[N+]1[B-]2(F)F [BDNCA-191]	0.06	556	18	24,714	574						
Cc1ccc(/C=C/c2cc(C)c3n2[B-](F)(F)[N+]2=CC=CC2=C3c2ccc(NC(=O)CCl)cc2)cc1 [BDNCA-208]	0.12	558	23	64,805	581						
CC1=CC(/C=C/c2ccc(Oc3ccc(C)cc3)cc2)=[N+]2C1=C(c1ccc(NC(=O)CCl)cc1)c1cccn1[B-]2(F)F [BDNCA-300]	0.21	563	27	102,151	590						
CC1=CC(/C=C/c2c3ccccc3c(C)c3ccccc23)=[N+]2C1=C(c1ccc(NC(=O)CCl)cc1)c1cccn1[B-]2(F)F [BDNCA-340]							532	17	36,247	549	0.04
CC1=CC(/C=C/c2ccc(Oc3ccccc3)cc2)=[N+]2C1=C(c1ccc(NC(=O)CCl)cc1)c1cccn1[B-]2(F)F [BDNCA-101]	0.20	562	27	89,245	589						
COc1cc(Cl)c(/C=C/C2=[N+]3C(=C(c4ccc(NC(=O)CCl)cc4)c4cccn4[B-]3(F)F)C(C)=C2)c(Cl)c1O [BDNCA-220]	0.01	559	24	40,915	583						
CC1=CC(/C=C/c2ccc3c(c2)OCO3)=[N+]2C1=C(c1ccc(NC(=O)CCl)cc1)c1cccn1[B-]2(F)F [BDNCA-139]	0.09	568	39	35,423	607						
CCOc1cccc(/C=C/C2=[N+]3C(=C(c4ccc(NC(=O)CCl)cc4)c4cccn4[B-]3(F)F)C(C)=C2)c1O [BDNCA-126]	0.01	563	15	37,071	578						
